We go through 11 compounds from US8809336B2, “Ortho-condensed pyridine and pyrimidine derivatives (e.g., purines) as protein kinases inhibitors” (Astex Therapeutics Limited, priority 2004, dated 2014).

For assay [1], the target named is T1, PKB-PIF fusion protein (Homo sapiens, UniProt P31751).
T1 construct: PIF (fusion partner); made in house
Put plainly: Measurement of PKB kinase inhibitory activity (IC50), 33P-ATP phosphocellulose filter assay. It is filed as biochemical. Here is the method:
The inhibition of protein kinase B (PKB) activity by compounds can be determined essentially as described by Andjelkovic et al. (Mol. Cell. Biol. 19, 5061-5072 (1999)) but using a fusion protein described as PKB-PIF and described in full by Yang et al (Nature Structural Biology 9, 940-944 (2002)). […] A final concentration of 0.6 nM enzyme is used in a buffer that includes 20 mM MOPS pH 7.2, 30 μM ATP/γ^33P-ATP and 25 μM substrate.
Compounds are added in DMSO solution to a final DMSO concentration of 2.5%. The reaction is allowed to proceed for 20 minutes before addition of excess orthophosphoric acid to quench activity. The reaction mixture is transferred to a phosphocellulose filter plate where the peptide binds and the unused ATP is washed away. After washing, scintillant is added and the incorporated activity measured by scintillation counting.
The % inhibition of the PKB activity is calculated and plotted in order to determine the concentration of test compound required to inhibit 50% of the PKB activity (IC50).

For assay [2], the target named is T2, PKA catalytic domain (Homo sapiens, UniProt P17612).
T2 construct: using the PKA catalytic domain from Upstate Biotechnology (#14-440); purchased Upstate Biotechnology 14-440
Put plainly: Measurement of PKA kinase inhibitory activity (IC50), 33P-ATP filter plate assay. It is filed as biochemical. As for the experimental part:
A final concentration of 1 nM enzyme is used in a buffer that includes 20 mM MOPS pH 7.2, 40 μM ATP/γ^33P-ATP and […] substrate. Compounds are added in dimethylsulphoxide (DMSO) solution to a final DMSO concentration of 2.5%. The reaction is allowed to proceed for 20 minutes before addition of excess orthophosphoric acid to quench activity. Unincorporated γ^33P-ATP is then separated from phosphorylated proteins on a Millipore MAPH filter plate. The plates are washed, scintillant is added and the plates are then subjected to counting on a Packard Topcount.

The mark [3] stands for this setting: 0.6 nM enzyme, 30 μM ATP, 25 μM AKTide-2T substrate, 20 minutes, read-out: IC50, inhibition of PKB activity.
Where [4] appears, read: 1 nM enzyme, 40 μM ATP, 20 minutes, read-out: IC50, inhibition of PKA activity.

pIC50: −log10 of the molar value. Like-named read-outs stand apart in the source and are kept apart here.

T1 sequence (P31751 with tags, fused parts or gaps limits assumed): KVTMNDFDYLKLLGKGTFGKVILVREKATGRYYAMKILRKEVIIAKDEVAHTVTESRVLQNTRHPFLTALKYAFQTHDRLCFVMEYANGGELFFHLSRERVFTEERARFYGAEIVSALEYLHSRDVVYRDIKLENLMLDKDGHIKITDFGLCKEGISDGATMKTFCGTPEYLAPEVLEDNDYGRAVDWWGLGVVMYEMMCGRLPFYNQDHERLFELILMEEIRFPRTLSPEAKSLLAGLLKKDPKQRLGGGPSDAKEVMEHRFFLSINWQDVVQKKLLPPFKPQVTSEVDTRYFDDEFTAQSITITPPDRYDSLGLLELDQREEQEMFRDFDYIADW

Take `NCC1(Cc2ccc(Cl)cc2)CCN(c2ncnc3[nH]ccc23)CC1` [Example 19, C-[4-(4-Chlorobenzyl)-1-(7H-pyrrolo[2,3-d]pyrimidin-4-yl)piperidin-4-yl]methylamine]: the negative-log IC50 (pIC50) in assay [1] (setting [3]) and in assay [2] (setting [4]) was above 5.00 in each case.

On to `NCC1(c2ccc(Cl)cc2)CCN(c2ncnc3[nH]c(=O)[nH]c23)CC1` [Example 20, 6-[4-Aminomethyl-4-(4-chlorophenyl)piperidin-1-yl]-7,9-dihydropurin-8-one], for which the pIC50 in assay [1] (setting [3]) and in assay [2] (setting [4]) was above 5.00 each time.

With `NC1(c2ccc(Cl)cc2)CCN(c2ncnc3[nH]ccc23)CC1` [Example 25, 4-(4-Chlorophenyl)-1-(7H-pyrrolo[2,3-d]pyrimidin-4-yl)piperidin-4-ylamine], the pIC50 in assay [1] and in assay [2] was above 5.00 throughout.

In the case of `NCC1(c2cccc(Cl)c2)CCN(c2ncnc3[nH]ccc23)CC1` [Example 26, C-[4-(3-Chlorophenyl)-1-(7H-pyrrolo[2,3-d]pyrimidin-4-yl)piperidin-4-yl]methylamine], the pIC50 in assay [1] (setting [3]) and in assay [2] (setting [4]) was above 5.00 each time.

Consider `NCC1(c2ccc(Cl)c(Cl)c2)CCN(c2ncnc3[nH]ccc23)CC1` [Example 28, C-[4-(3,4-Dichlorophenyl)-1-(7H-pyrrolo[2,3-d]pyrimidin-4-yl)piperidin-4-yl]methylamine], for which the pIC50 in assay [1] (setting [3]) and in assay [2] (setting [4]) was above 5.00 throughout.

For `NCC1(c2ccc(OC(F)(F)F)cc2)CCN(c2ncnc3[nH]cnc23)CC1` [Example 31, C-[1-(9H-Purin-6-yl)-4-(4-trifluoromethoxyphenyl)piperidin-4-yl]methylamine], the pIC50 in assay [1] (setting [3]) and in assay [2] (setting [4]) was above 5.00 throughout.

Turning to `NCC1(c2ccc(C(F)(F)F)cc2)CCN(c2ncnc3[nH]ccc23)CC1` [Example 32, C-[1-(7H-Pyrrolo[2,3-d]pyrimidin-4-yl)-4-(4-trifluoromethylphenyl)piperidin-4-yl]methylamine], the pIC50 in assay [1] (setting [3]) and in assay [2] (setting [4]) was above 5.00 each time.

Turning to `COc1ccc(C2(CN)CCN(c3ncnc4[nH]ccc34)CC2)cc1` [Example 38, C-[4-(4-Methoxyphenyl)-1-(7H-pyrrolo[2,3-d]pyrimidin-4-yl)piperidin-4-yl]methylamine], the pIC50 in assay [1] (setting [3]) and in assay [2] (setting [4]) was above 5.00 each time.

With `NCC1(c2ccc(OCc3ccccc3)cc2)CCN(c2ncnc3[nH]ccc23)CC1` [Example 40, C-[4-(4-Benzyloxyphenyl)-1-(7H-pyrrolo[2,3-d]pyrimidin-4-yl)piperidin-4-yl]methylamine], the pIC50 in assay [1] (setting [3]) and in assay [2] (setting [4]) was above 5.00 throughout.

As for `CNCC1(c2ccc(Cl)cc2)CCN(c2ncnc3[nH]ccc23)CC1` [Example 42, [4-(4-Chloro-phenyl)-1-(7H-pyrrolo[2,3-d]pyrimidin-4-yl)-piperidin-4-ylmethyl]-methyl-amine], the pIC50 in assay [1] and in assay [2] was above 5.00 throughout.

Consider `CN(C)C1(Cc2ccc(Cl)cc2)CCN(c2ncnc3[nH]ccc23)CC1` [Example 44, [4-(4-Chlorobenzyl)-1-(7H-pyrrolo[2,3-d]pyrimidin-4-yl)-piperidin-4-yl]-dimethylamine], for which the pIC50 in assay [1] (setting [3]) and in assay [2] (setting [4]) was above 5.00 throughout.
